Where a name gives a salt, the structure may show the parent alone. Bounds are passed on as bounds.

For assay [1], the system named is A431 cells (human epidermoid carcinoma). In words: In vitro tumor cell proliferation assay (Cell Titer-Glo luminescent cell viability), A431. The format is cell-based. To be noted: A-431, 72 h, 72 hours of drug exposure, ATP luminescence readout, read-out: IC50, anti-proliferative activity (inhibition of cell proliferation). An excerpt:
(§1) In vitro Tumor Cell Proliferation Assay
(§2) The tumor cell proliferation assay used to test the compounds of the present invention involves a readout called Cell Titer-Glow® Luminescent Cell Viability Assay developed by Promega® (Cunningham, B A “A Growing Issue: Cell Proliferation Assays, Modern kits ease quantification of cell growth” The Scientist 2001, 15(13), 26, and Crouch, S P et al., “The use of ATP bioluminescence as a measure of cell proliferation and cytotoxicity” Journal of Immunological Methods 1993, 160, 81-88), that measures inhibition of cell proliferation. Generation of a luminescent signal corresponds to the amount of ATP present, which is directly proportional to the number of metabolically active (proliferating) cells.
(§3) A431cells (human epidermoid carcinoma, ATCC […]) and BT474 (human breast carcinoma, ATCC […]) were plated at a density of 2.5×10^3 cells/well in 96 well black-clear bottom tissue culture plates in RPMI media with 10% Fetal Bovine Serum and incubated at 37° C. Twenty-four hours later, test compounds are added at a final concentration range from as high […] to as low 64 pM depend on the activities of the tested compounds in serial dilutions at a final DMSO concentration of 0.1%. Cells were incubated for 72 hours at 37° C. in complete growth media after addition of the test compound. After 72 hours of drug exposure, the plates were equilibrated to room temperature for approximately 30 min. Then, using a Promega Cell Titer Glo Luminescent® assay kit, lysis buffer containing 100 microliters of the enzyme luciferase and its substrate, luciferin mixture, was added to each well. The plates were mixed for 2 min on orbital shaker to ensure cell lysis and incubated for 10 min at room temperature to stabilize luminescence signal. The samples were read on VICTOR 2 using Luminescence protocol, and analyzed with Analyze5 software to generate IC50 values.
(ATP-based viability assays read luminescence as a measure of living cells.)

In assay [2] the test system is BT474 (human breast carcinoma). In words: In vitro tumor cell proliferation assay (Cell Titer-Glo luminescent cell viability), BT474. The format is cell-based. To be noted: BT-474, 72 h, BT474 cells, 72 hours of drug exposure, ATP luminescence readout, read-out: IC50, anti-proliferative activity (inhibition of cell proliferation).
Excerpt: as §1, §2, §3

Regarding `NCC(=O)OCCn1cc2c(n1)CCc1c-2sc2ncnc(Nc3ccc(OCc4cccc(F)c4)c(Cl)c3)c12` [Example 315, 2-[6-({3-chloro-4-[(3-fluorobenzyl)oxy]phenyl}amino)-4,5-dihydro-2H-pyrimido[5′,4′:4,5]thieno[2,3-e]indazol-2-yl]ethyl glycinate], the values for the IC50 in assay [1] and in assay [2] were at most 5 µM and at most 1 µM, respectively. In the same order, the values of `CC(C)(C)[Si](C)(C)OCCn1cc2c(n1)CCc1c-2sc2ncnc(Nc3ccc(OCc4ccccc4)c(Cl)c3)c12` [Example 123, N-[4-(benzyloxy)-3-chlorophenyl]-2-(2-{[tert-butyl(dimethyl)silyl]oxy}ethyl)-4,5-dihydro-2H-pyrimido[5′,4′:4,5]thieno[2,3-e]indazol-6-amine] are at most 50 µM and at most 5 µM. For `COCCN(CCn1cc2c(n1)CCc1c-2sc2ncnc(Nc3ccc(F)c(Cl)c3)c12)C(C)C` [Example 21, N-(3-chloro-4-fluorophenyl)-2-{2-[isopropyl(2-methoxyethyl)amino]ethyl}-4,5-dihydro-2H-pyrimido[5′,4′:4,5]thieno[2,3-e]indazol-6-amine], in that order: at most 5 µM and at most 5 µM. In the same order, the values of `COCCN(C)CCn1ncc2c1CCc1c-2sc2ncnc(Nc3ccc(OCc4cccc(F)c4)c(Cl)c3)c12` [Example 261, N-{3-chloro-4-[(3-fluorobenzyl)oxy]phenyl}-3-{2-[(2-methoxyethyl)(methyl)amino]ethyl}-4,5-dihydro-3H-pyrimido[5′,4′:4,5]thieno[2,3-e]indazol-6-amine] are at most 50 µM and at most 1 µM. `CN(C)CCn1cc2c(n1)CCc1c-2sc2ncnc(Nc3ccc(OCc4cccc(F)c4)c(Cl)c3)c12` [Example 73, N-{3-chloro-4-[(3-fluorobenzyl)oxy]phenyl}-2-[2-(dimethylamino)ethyl]-4,5-dihydro-2H-pyrimido[5′,4′:4,5]thieno[2,3-e]indazol-6-amine]: the IC50 was at most 5 µM in assay [1] and at most 1 µM in assay [2]. For `CCCN1CCC(CCn2cc3c(n2)CCc2c-3sc3ncnc(Nc4ccc(OCc5cccc(F)c5)c(Cl)c4)c23)CC1` [Example 253, N-{3-chloro-4-[(3-fluorobenzyl)oxy]phenyl}-2-[2-(1-propylpiperidin-4-yl)ethyl]-4,5-dihydro-2H-pyrimido[5′,4′:4,5]thieno[2,3-e]indazol-6-amine], in that order: at most 5 µM and at most 1 µM. Take `CNC[C@@H](O)Cn1ncc2c1CCc1c-2sc2ncnc(Nc3ccc(OCc4cccc(F)c4)c(Cl)c3)c12` [Example 166, (2R)-1-[6-({3-chloro-4-[(3-fluorobenzyl)oxy]phenyl}amino)-4,5-dihydro-3H-pyrimido[5′,4′:4,5]thieno[2,3-e]indazol-3-yl]-3-(methylamino)propan-2-ol trifluoroacetate (salt)]: the figures for the IC50 in assay [1] and in assay [2] were at most 50 µM and at most 1 µM, respectively.

In the case of `COCCN1CCN(C[C@@H](O)Cn2cc3c(n2)CCc2c-3sc3ncnc(Nc4ccc(OCc5cccc(F)c5)c(Cl)c4)c23)CC1` [Example 133, (2R)-1-[6-({3-chloro-4-[(3-fluorobenzyl)oxy]phenyl}amino)-4,5-dihydro-2H-pyrimido[5′,4′:4,5]thieno[2,3-e]indazol-2-yl]-3-[4-(2-methoxyethyl)piperazin-1-yl]propan-2-ol], the IC50 was at most 50 µM in assay [1] and at most 1 µM in assay [2]. Consider `OCCNCCn1ncc2c1CCc1c-2sc2ncnc(Nc3ccc(F)c(Cl)c3)c12` [Example 96, 2-[(2-{6-[(3-chloro-4-fluorophenyl)amino]-4,5-dihydro-3H-pyrimido[5′,4′:4,5]thieno[2,3-e]indazol-3-yl}ethyl)amino]ethanol], for which the figures for the IC50 in assay [1] and in assay [2] were at most 5 µM and at most 1 µM, respectively.

Consider `OCCn1ncc2c1CCc1c-2sc2ncnc(Nc3ccc(F)c(Cl)c3)c12` [Example 88, 2-{6-[(3-chloro-4-fluorophenyl)amino]-4,5-dihydro-3H-pyrimido[5′,4′:4,5]thieno[2,3-e]indazol-3-yl}ethanol], for which the IC50 in assay [1] and in assay [2] was at most 5 µM throughout. As to `CCN1CCN(CCn2cc3c(n2)CCc2c-3sc3ncnc(Nc4ccc5c(cnn5Cc5cccc(F)c5)c4)c23)CC1` [Example 283, 2-[2-(4-ethylpiperazin-1-yl)ethyl]-N-[1-(3-fluorobenzyl)-1H-indazol-5-yl]-4,5-dihydro-2H-pyrimido[5′,4′:4,5]thieno[2,3-e]indazol-6-amine], the IC50 was at most 5 µM in assay [1] and at most 1 µM in assay [2]. With `CS(=O)(=O)CCNCCn1ncc2c1CCc1c-2sc2ncnc(Nc3ccc(F)c(Cl)c3)c12` [Example 92, N-(3-chloro-4-fluorophenyl)-3-(2-{[2-(methylsulfonyl)ethyl]amino}ethyl)-4,5-dihydro-3H-pyrimido[5′,4′:4,5]thieno[2,3-e]indazol-6-amine], the IC50 in assay [1] and in assay [2] was at most 5 µM each time. On to `OCCN(CCO)C[C@@H](O)Cn1ncc2c1CCc1c-2sc2ncnc(Nc3ccc(OCc4cccc(F)c4)c(Cl)c3)c12` [Example 172, (2R)-1-[bis(2-hydroxyethyl)amino]-3-[6-({3-chloro-4-[(3-fluorobenzyl)oxy]phenyl}amino)-4,5-dihydro-3H-pyrimido[5′,4′:4,5]thieno[2,3-e]indazol-3-yl]propan-2-ol trifluoroacetate (salt)], for which the IC50 was at most 50 µM in assay [1] and at most 1 µM in assay [2]. In the same order, the values of `NC[C@@H](O)Cn1cc2c(n1)CCc1c-2sc2ncnc(Nc3ccc(OCc4cccc(F)c4)c(Cl)c3)c12` [Example 160, (2R)-1-amino-3-[6-({3-chloro-4-[(3-fluorobenzyl)oxy]phenyl}amino)-4,5-dihydro-2H-pyrimido[5′,4′:4,5]thieno[2,3-e]indazol-2-yl]propan-2-ol trifluoroacetate (salt)] are at most 50 µM and at most 5 µM. For the compound `CN1CCN(CCn2cc3c(n2)CCc2c-3sc3ncnc(Nc4ccc5c(ccn5Cc5ccccc5)c4)c23)CC1` [Example 337, N-(1-benzyl-1H-indol-5-yl)-2-[2-(4-methylpiperazin-1-yl)ethyl]-4,5-dihydro-2H-pyrimido[5′,4′:4,5]thieno[2,3-e]indazol-6-amine], the IC50 in assay [2] was at most 1 µM. Still for that read-out and setting: the value for `Fc1cccc(COc2ccc(Nc3ncnc4sc5c(c34)CCc3nn(CCC4CCNCC4)cc3-5)cc2Cl)c1` [Example 247, N-{3-chloro-4-[(3-fluorobenzyl)oxy]phenyl}-2-(2-piperidin-4-ylethyl)-4,5-dihydro-2H-pyrimido[5′,4′:4,5]thieno[2,3-e]indazol-6-amine] was at most 1 µM. On the same count and under the same terms, the value for `Fc1ccc(Nc2ncnc3sc4c(c23)CCc2nn(CCBr)cc2-4)cc1Cl` [Example 6, 2-(2-bromoethyl)-N-(3-chloro-4-fluorophenyl)-4,5-dihydro-2H-pyrimido[5′,4′:4,5]thieno[2,3-e]indazol-6-amine] was at most 5 µM; that for `CC(C)(C)OC(=O)N1CCC(CCn2cc3c(n2)CCc2c-3sc3ncnc(Nc4ccc(OCc5cccc(F)c5)c(Cl)c4)c23)CC1` [Example 246, tert-butyl 4-{2-[6-({3-chloro-4-[(3-fluorobenzyl)oxy]phenyl}amino)-4,5-dihydro-2H-pyrimido[5′,4′:4,5]thieno[2,3-e]indazol-2-yl]ethyl}piperidine-1-carboxylate] was at most 5 µM. Same read-out and setting: the value for `CS(=O)(=O)OCCn1cc2c(n1)CCc1c-2sc2ncnc(Nc3ccc4c(cnn4Cc4ccccc4)c3)c12` [Example 303, 2-{6-[(1-benzyl-1H-indazol-5-yl)amino]-4,5-dihydro-2H-pyrimido[5′,4′:4,5]thieno[2,3-e]indazol-2-yl}ethyl methanesulfonate] was at most 1 µM; that for `O=C(CCl)N1CCC(Cn2cc3c(n2)CCc2c-3sc3ncnc(Nc4ccc(OCc5cccc(F)c5)c(Cl)c4)c23)CC1` [Example 233, 2-{[1-(chloroacetyl)piperidin-4-yl]methyl}-N-{3-chloro-4-[(3-fluorobenzyl)oxy]phenyl}-4,5-dihydro-2H-pyrimido[5′,4′:4,5]thieno[2,3-e]indazol-6-amine trifluoroacetate] was at most 1 µM; that for `CN(C)[C@H]1CCN(C[C@@H](O)Cn2cc3c(n2)CCc2c-3sc3ncnc(Nc4ccc(OCc5cccc(F)c5)c(Cl)c4)c23)C1` [Example 153, (2R)-1-[6-({3-chloro-4-[(3-fluorobenzyl)oxy]phenyl}amino)-4,5-dihydro-2H-pyrimido[5′,4′:4,5]thieno[2,3-e]indazol-2-yl]-3-[(3S)-3-(dimethylamino)pyrrolidin-1-yl]propan-2-ol trilfluoroacetate (salt)] was at most 1 µM. In the case of `c1ccc(Cn2ncc3cc(Nc4ncnc5sc6c(c45)CCc4nn(CCN5CCNCC5)cc4-6)ccc32)cc1` [Example 306, N-(1-benzyl-1H-indazol-5-yl)-2-(2-piperazin-1-ylethyl)-4,5-dihydro-2H-pyrimido[5′,4′:4,5]thieno[2,3-e]indazol-6-amine], the IC50 in assay [2] is at most 1 µM.
